Laboratory results from EP3290412A1, “HIV-1 NUCLEOCAPSID INHIBITORS” (Università degli Studi di Siena, priority 2016, dated 2018).
Where two headings read alike, the source gives them in different places.

Columns and labels:
Format in all cases: cell-based
[1] = test system: Peripheral blood mononuclear cells (PBMC); settings: human, 7 days
Description: Peripheral blood mononuclear cells (PBMC) obtained from healthy donors by separation over Ficoll-Hypaque (GEHealthear-Cat.# GEH17-1440-02) were suspended at 2x10^6 cells/mL in RPMI 1640 (Biowest-Cat.#L0501-500) supplemented with 10% of heat-inactivated sterile fetal bovine serum (Gibco-Cat.#10270-106), 2 mmol/l L-glutamine (Biowest-Cat.#X0550-100), 50 U/mL Penicillin-50 µg/mL Streptomycin (Biowest-Cat.#L0022-100), referred to as complete medium (CM). PBMC were supplemented with 5 µg/mL of phytohaemagglutinin (Sigma Aldr-Cat.#L1668) and cultured in 75 cm^2 flasks (Sarsted-Cat.#833.911.002) for 2 days at 37 °C in a humidified atmosphere with 5% CO2.
PBMC were then washed in CM, counted by trypan blue exclusion (Gibco-Cat. #15250-061), centrifuged and suspended in fresh CM supplemented with 20 IU/mL recombinant human IL-2 (Miltenyi Biotec-Cat.#130-097-748) and seeded in a 96-well-tissue culture plate (Sarsted-Ca#831.837) at the density of 5x10^5 cells/mL (or 1x10^5 cells in 200 µL final CM volume per well). Cells were left untreated (negative control) or treated with different concentrations of the compounds.
After 7 days of incubation cytotoxicity was determined using Promega's CellTiter 96(R) AQueous One Solution Cell Proliferation Assay (MTS assay) (Promega-Cat.#G3581) according to the manufacturer's instuctions. This is a colorimetric method for determining the number of viable cells in proliferation or cytotoxicity assays. The MTS tetrazolium compound is bioreduced by cells into a colored formazan product that is soluble in tissue culture medium. This conversion is presumably accomplished by NADPH or NADH produced by dehydrogenase enzymes in metabolically active cells.
Briefly, MTS solution was thawed at room temperature, or in a water bath at 37 °C and 40 µL of MTS solution was pipeted into each well of the 96-well assay plate containing the samples in 200 µL of culture medium and incubated at 37 °C, 5% CO2 for 4 hours. The optical density was read at 490 nm using a 96-well plate reader (Tecan Infinite F50) and TD50 (toxic dose 50%, dose killing 50% of the cells compared to untreated control) value was calculated by interpolation of the curve obtained by plotting dose against percent mortality and by using "Magellan data analysis software". CM alone plus MTS solution was used as a blank, and cell culture well without compound was used as a cellular control.

[2] = test system: HIV-1 reference strain NL4-3; assay: BiCycle assay (MT-2 then TZM-bl cells); settings: for EC50: read-out: Mean EC50 (nM)
In short: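 MT-2 cells were infected with NL4-3 in the presence of five-fold compound dilutions. After 72 h, the supernatant was passed to TZM-bl cells. Two days later, luciferase luminescence was read and IC50 calculated, giving a readout that spans the whole replication cycle.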

HeLa cells = assay: HeLa Proliferation assay (CellTiter Glo); settings: 72 hours
Description: HeLa cells (ATCC® CCL2™) in DMEM (Dulbecco Modified Eagle's Medium) without phenol red, Thermo, 11880, USA + 10% FBS + 1X PenStrep + 1X Gln or HUVEC cells (ATCC® CRL1730™) in EBM-2 (Endothelial Growth Basal Medium, Lonza, CC3156) + EGM-2 SingleQuotsTMSupplements and Growth Factors (Lonza, CC4176) + 1X Penicyllin-Streptomycin (PenStrep, ThermoFisher) + 1X Glutamine, are plated in a 384 well plate (Thermo, 4334-11, USA) to a density of 2000 cells per well and let recover for four hours at 37 °C, 5% CO2 in a humidified atmosphere. After the recovery, compounds are transferred to assay plates as per compound preparation method. Assay plates are then incubated at 37 °C, 5% CO2 in a humidified atmosphere for 72 hours. Cell viability is measured by the CellTiter Glo (Promega, G8080, USA) as per manufacturer instruction.

[3] = Human immunodeficiency virus 1, NL43, TZM-bl, read-out: BiCycle IC50 nM
[4] = Human immunodeficiency virus 1, NL43, TZM-bl
[5] = Human immunodeficiency virus 1, NL43, MT-2 cells 72 hours then TZM-bl cells two days, NL4-3, read-out: BiCycle IC50

C[C@@H](NC(=O)c1nc(-c2ccc(C(=O)OCc3ccccc3)cn2)nc(O)c1O)C1CCCCC1 [Compound 21, benzyl (R)-6-(4-((1-cyclohexylethyl)carbamoyl)-5,6-dihydroxypyrimidin-2-yl)nicotinate]
Proliferation assay PBMC TD50 [1]: <400 nM
IC50 [2, 3]: 118 nM
Proliferation assay HELA TD50 (HeLa cells): 3960.7 nM

C[C@@H](NC(=O)c1nc(-c2ccc3ccccc3n2)nc(O)c1O)C1CCCCC1 [Compound 22, (R)-N-(1-cyclohexylethyl)-5,6-dihydroxy-2-(quinolin-2-yl)pyrimidine-4-carboxamide]
Proliferation assay PBMC TD50 [1]: 8050 nM
IC50 [2, 3]: 450 nM
Proliferation assay HELA TD50 (HeLa cells): 2844.6 nM

Cc1cccnc1-c1nc(O)c(O)c(C(=O)N[C@H](C)C2CCCCC2)n1 [Compound 23, (R)-N-(1-cyclohexylethyl)-5,6-dihydroxy-2-(3-methylpyridin-2-yl)pyrimidine-4-carboxamide]
Proliferation assay PBMC TD50 [1]: 8900 nM
TD50 [1]: 8.9 µM
IC50 [2, 3]: 203 nM
EC50 [2, 4]: 200 nM
Proliferation assay HELA TD50 (HeLa cells): 2333.9 nM

O=C(NC1(C2CCCCC2)CC1)c1nc(-c2ccccn2)nc(O)c1O [Compound 24, N-(1-cyclohexylcyclopropyl)-5,6-dihydroxy-2-(pyridin-2-yl)pyrimidine-4-carboxamide]
Proliferation assay PBMC TD50 [1]: 2600 nM
IC50 [2, 3]: 110 nM
Proliferation assay HELA TD50 (HeLa cells): 1513.1 nM

C[C@@H](NC(=O)c1nc(-c2cc3ccccc3cn2)nc(O)c1O)C1CCCCC1 [Compound 25, (R)-N-(1-cyclohexylethyl)-5,6-dihydroxy-2-(isoquinolin-3-yl)pyrimidine-4-carboxamide]
Proliferation assay PBMC TD50 [1]: 1750 nM
IC50 [2, 3]: 32 nM
Proliferation assay HELA TD50 (HeLa cells): 1393.4 nM

C[C@@H](NC(=O)c1nc(-c2cc(C(F)(F)F)ccn2)nc(O)c1O)C1CCCCC1 [Compound 27, (R)-N-(1-cyclohexylethyl)-5,6-dihydroxy-2-(4-(trifluoromethyl)pyridin-2-yl)pyrimidine-4-carboxamide]
Proliferation assay PBMC TD50 [1]: 1075 nM
IC50 [2, 3]: 433 nM
Proliferation assay HELA TD50 (HeLa cells): 5975.3 nM

C[C@@H](NC(=O)c1nc(-c2nc3ccccc3[nH]2)nc(O)c1O)C1CCCCC1 [Compound 29, (R)-2-(1H-benzo[d]imidazol-2-yl)-N-(1-cyclohexylethyl)-5,6-dihydroxypyrimidine-4-carboxamide]
Proliferation assay PBMC TD50 [1]: 1700 nM
IC50 [2, 3]: 1780 nM
Proliferation assay HELA TD50 (HeLa cells): 3396.5 nM

C[C@@H](NC(=O)c1nc(-c2ncccc2C(F)(F)F)nc(O)c1O)C1CCCCC1 [Compound 30, (R)-N-(1-cyclohexylethyl)-5,6-dihydroxy-2-(3-(trifluoromethyl)pyridin-2-yl)pyrimidine-4-carboxamide]
Proliferation assay PBMC TD50 [1]: 5400 nM
IC50 [2, 5]: 1730 nM
Proliferation assay HELA TD50 (HeLa cells): >50000 nM

C[C@@H](NC(=O)c1nc(-c2nccc3ccccc23)nc(O)c1O)C1CCCCC1 [Compound 31, (R)-N-(1-cyclohexylethyl)-5,6-dihydroxy-2-(isoquinolin-1-yl)pyrimidine-4-carboxamide]
Proliferation assay PBMC TD50 [1]: 5000 nM
TD50 [1]: 5 µM
IC50 [2, 3]: 100 nM
EC50 [2, 4]: 100 nM
Proliferation assay HELA TD50 (HeLa cells): 2070.9 nM

COc1ccc(-c2nc(O)c(O)c(C(=O)N[C@H](C)C3CCCCC3)n2)nc1 [Compound 32, (R)-N-(1-cyclohexylethyl)-5,6-dihydroxy-2-(5-methoxypyridin-2-yl)pyrimidine-4-carboxamide]
Proliferation assay PBMC TD50 [1]: 3000 nM
IC50 [2, 3]: 341 nM
Proliferation assay HELA TD50 (HeLa cells): 935.6 nM

C[C@@H](NC(=O)c1nc(-c2ncccc2Cl)nc(O)c1O)C1CCCCC1 [Compound 33, (R)-2-(3-chloropyridin-2-yl)-N-(1-cyclohexylethyl)-5,6-dihydroxypyrimidine-4-carboxamide]
Proliferation assay PBMC TD50 [1]: 3400 nM
IC50 [2, 3]: 1220 nM
Proliferation assay HELA TD50 (HeLa cells): 6814.8 nM

C[C@@H](NC(=O)c1nc(-c2cccc(Cl)n2)nc(O)c1O)C1CCCCC1 [Compound 34, (R)-2-(6-chloropyridin-2-yl)-N-(1-cyclohexylethyl)-5,6-dihydroxypyrimidine-4-carboxamide]
Proliferation assay PBMC TD50 [1]: 5880 nM
IC50 [2, 3]: 665 nM
Proliferation assay HELA TD50 (HeLa cells): 8229.6 nM

C[C@@H](NC(=O)c1nc(-c2cc(OCc3ccccc3)ccn2)nc(O)c1O)C1CCCCC1 [Compound 35, (R)-2-(4-(benzyloxy)pyridin-2-yl)-N-(1-cyclohexylethyl)-5,6-dihydroxypyrimidine-4-carboxamide]
Proliferation assay PBMC TD50 [1]: 670 nM
IC50 [2, 5]: 530 nM
Proliferation assay HELA TD50 (HeLa cells): 4589.6 nM

C[C@@H](NC(=O)c1nc(-c2ccc(C(F)(F)F)cn2)nc(O)c1O)C1CCCCC1 [Compound 36, (R)-N-(1-cyclohexylethyl)-5,6-dihydroxy-2-(5-(trifluoromethyl)pyridin-2-yl)pyrimidine-4-carboxamide]
Proliferation assay PBMC TD50 [1]: 465 nM
IC50 [2, 3]: 132 nM
Proliferation assay HELA TD50 (HeLa cells): 4717.7 nM

COc1cccc(-c2nc(O)c(O)c(C(=O)N[C@H](C)C3CCCCC3)n2)n1 [Compound 37, (R)-N-(1-cyclohexylethyl)-5,6-dihydroxy-2-(6-methoxypyridin-2-yl)pyrimidine-4-carboxamide]
Proliferation assay PBMC TD50 [1]: 1500 nM
IC50 [2, 3]: 332 nM
Proliferation assay HELA TD50 (HeLa cells): 897.6 nM

C[C@H](NC(=O)c1nc(-c2ccccn2)nc(O)c1O)C1CCCCC1 [Compound 38, (S)-N-(1-cyclohexylethyl)-5,6-dihydroxy-2-(pyridin-2-yl)pyrimidine-4-carboxamide]
Proliferation assay PBMC TD50 [1]: 2450 nM
IC50 [2, 3]: 154 nM
Proliferation assay HELA TD50 (HeLa cells): 578.2 nM

Cc1cccnc1-c1nc(O)c(O)c(C(=O)N[C@@H](C)C2CCCCC2)n1 [Compound 39, (S)-N-(1-cyclohexylethyl)-5,6-dihydroxy-2-(3-methylpyridin-2-yl)pyrimidine-4-carboxamide]
Proliferation assay PBMC TD50 [1]: 2300 nM
IC50 [2, 3]: 76.5 nM
Proliferation assay HELA TD50 (HeLa cells): 878.8 nM

Cc1ccc(-c2nc(O)c(O)c(C(=O)N[C@H](C)C3CCCCC3)n2)nc1 [Compound 41, (R)-N-(1-cyclohexylethyl)-5,6-dihydroxy-2-(5-methylpyridin-2-yl)pyrimidine-4-carboxamide]
Proliferation assay PBMC TD50 [1]: 2800 nM
IC50 [2, 5]: 298 nM
Proliferation assay HELA TD50 (HeLa cells): 2013 nM

O=C(NCCC1CCCC1)c1nc(-c2ccccn2)nc(O)c1O [Compound 43, N-(2-cyclopentylethyl)-5,6-dihydroxy-2-(pyridin-2-yl)pyrimidine-4-carboxamide]
Proliferation assay PBMC TD50 [1]: 8090 nM
IC50 [2, 5]: 1380 nM
Proliferation assay HELA TD50 (HeLa cells): 2190.1 nM

C[C@@H](NC(=O)c1nc(-c2cccc(C(F)(F)F)n2)nc(O)c1O)C1CCCCC1 [Compound 44, (R)-N-(1-cyclohexylethyl)-5,6-dihydroxy-2-(6-(trifluoromethyl)pyridin-2-yl)pyrimidine-4-carboxamide]
Proliferation assay PBMC TD50 [1]: 21550 nM
IC50 [2, 5]: 936 nM
Proliferation assay HELA TD50 (HeLa cells): >50000 nM

C[C@@H](NC(=O)c1nc(-c2cccc(N)n2)nc(O)c1O)C1CCCCC1 [Compound 45, (R)-2-(6-aminopyridin-2-yl)-N-(1-cyclohexylethyl)-5,6-dihydroxypyrimidine-4-carboxamide]
Proliferation assay PBMC TD50 [1]: 3360 nM
IC50 [2, 3]: 1390 nM
Proliferation assay HELA TD50 (HeLa cells): 3227.2 nM
